# Reference: PMC8317065, “UPLC-MS/MS Method for Analysis of Endocannabinoid and Related Lipid Metabolism in Mouse Mucosal Tissue” (Frontiers in Physiology, 2021)
# Assays:
# human recombinant DGL = system: human recombinant DGL; design: method as in Bisogno et al., 2006; conditions: ref Bisogno et al., 2006, read-out: IC50 reported for human recombinant DGL; cited from earlier work
# FAE metabolism = test: THL oral gavage: levels of FAEs in jejunum mucosa, lung and plasma; type: in vivo, mouse
# Experimental: Adult C57BL/6J male mice were food-deprived for 24 h prior to harvest with ad libitum access to water. To prevent coprophagia, animals were maintained on elevated wire-bottom cages for a 72-hour acclimation period and during the 24-hour food deprivation. One hour prior to harvest, mice received an oral gavage (100 μL of 10 mg/mL) of the DGL inhibitor, THL, in polyethylene glycol (PEG) or PEG alone as control. Jejunum intestinal epithelium and lungs were harvested as described above (see section “Tissue Harvest and Preparation for Enzyme Assays”).
# Frozen tissue samples were weighed and homogenized in 1.0 mL of methanol containing the internal standards [^2H5]-2-AG (500 pmol), [^2H4]-AEA (1 pmol), and [^2H4]-OEA (10 pmol). Lipids were extracted using chloroform (2.0 mL) prior to being washed with 1.0 mL 0.2-micron ultra-purified water. Following centrifugation (1,500 × g, 15 min, 4°C), the lower organic phase was collected and dried under N2 steam (99.998% pure). A second chloroform wash (1.0 mL) was then performed followed by another centrifugation (1,500 × g, 15 min, 4°C) and collection of the lower phase. Samples were reconstituted in 2.0 mL of chloroform and purified via open-bed silica gel column chromatography. Columns were washed with a 9:1 chloroform:methanol mixture to elute MAGs and FAEs for collection. Collected eluates were dried under N2 steam (99.998% pure) and resuspended in 0.2 mL of methanol:chloroform (1:1) prior to analysis via UPLC-MS/MS (see section “Quantitation of MAGs and FAEs”).
# Data was acquired using equipment described above (see section “UPLC-MS/MS Detection of Analytes”) and using the elution protocol described above (see section “Quantitation of MAG Biosynthetic Enzyme Activity Assay Products”). Cone voltage and collision energy for each analyte are as follows, respectively: AEA = 30 v, 14 v; [^2H4]-AEA = 26 v, 16v; OEA = 28 v, 16 v; [^2H4]-OEA = 48 v, 14 v; DHEA = 30 v, 50 v; 2-AG (20:4) = 30 v, 12 v; [^2H5]-2-AG = 25 v, 44v; 2-DG (22:6) = 34 v, 14 v; 2-PG (16:0) = 18 v, 10 v; 2-OG (18:1) = 42 v, 10 v; 2-LG (18:2) = 30 v, 10 v. MS/MS detection was in positive ion mode and capillary voltage set at 0.1 kV. Extracted ion chromatograms were used to quantify AEA (m/z = 348.3 > 62.0), [^2H4]-AEA (m/z = 352.3 > 66.1), OEA (m/z = 326.4 > 62.1), [^2H4]-OEA (m/z = 330.4 > 66.0), DHEA (m/z = 372.3 > 91.0), 2-AG (m/z = 379.3 > 287.3), [^2H5]-2-AG (m/z = 384.3 > 93.4), 2-DG (m/z = 403.3 > 311.1), 2-PG (m/z = 331.3 > 239.3), 2-OG (m/z = 357.4 > 265.2), and 2-LG (m/z = 355.3 > 263.3). Quantitation occurred using a stable isotope dilution method to detect protonated adducts of the ions [M + H] + in MRM mode. Acyl migration is known to occur in many MAG species following silica-gel purification, therefore the sum of 1-AG and 2-AG, 1-PG and 2-PG, 1-OG and 2-OG, and 1-DG and 2-DG are reported ([Stella et al., 1997]). The established lower limit of quantitation (LLOQ: signal to noise ratio >10) for 2-AG, 2-DG, 2-PG, 2-OG, and 2-LG was 0.5 pmol. The LLOQ for AEA, OEA, and DHEA was 0.008 pmol.
# [1] = THL 1 mg oral, 1 h prior to tissue harvest
structure (smiles),measurement,setting,value
"CCCCCCCCCCC[C@@H](C[C@@H]1OC(=O)[C@H]1CCCCCC)OC(=O)[C@H](CC(C)C)NC=O [THL, tetrahydrolipstatin]",IC50,human recombinant DGL,60 nM
same,AEA level in jejunum mucosa,"FAE metabolism; THL 1 mg oral gavage 1 h prior to harvest, vehicle 2.85 ± 0.29",2.41 ± 0.24 pmol/g
same,AEA level in lung,"FAE metabolism; THL 1 mg oral gavage 1 h prior to harvest, vehicle 3.14 ± 0.14",2.85 ± 0.08 pmol/g
same,AEA level in plasma,"FAE metabolism; THL 1 mg oral gavage 1 h prior to harvest, vehicle 3.76 ± 0.07",3.11 ± 0.50 pmol/mL
same,DHEA level in plasma,"FAE metabolism; THL 1 mg oral gavage 1 h prior to harvest, vehicle 6.41 ± 0.76",5.62 ± 0.43 pmol/mL
same,DHEA level in lung,"FAE metabolism; THL 1 mg oral gavage 1 h prior to harvest, vehicle 14.25 ± 2.18",16.13 ± 1.19 pmol/g
same,DHEA level in jejunum mucosa,"FAE metabolism; THL 1 mg oral gavage 1 h prior to harvest, vehicle 14.53 ± 1.25",18.97 ± 5.08 pmol/g
same,OEA level in plasma,"FAE metabolism; THL 1 mg oral gavage 1 h prior to harvest, vehicle 41.19 ± 3.84",36.12 ± 2.36 pmol/mL
same,OEA level in jejunum mucosa,"FAE metabolism; THL 1 mg oral gavage 1 h prior to harvest, vehicle 52.23 ± 6.73",46.83 ± 9.00 pmol/g
same,OEA level in lung,"FAE metabolism; THL 1 mg oral gavage 1 h prior to harvest, vehicle 92.06 ± 4.99",83.75 ± 3.44 pmol/g
same,effect on levels of FAEs in jejunum mucosa vs vehicle,FAE metabolism; [1],no changes
same,effect on levels of FAEs in lung tissue vs vehicle,FAE metabolism; [1],no changes
same,effect on plasma concentrations of FAEs vs vehicle,FAE metabolism; [1],unaffected
